This assay deals with SARS-CoV-2 main protease (M^pro) (Severe acute respiratory syndrome coronavirus 2, UniProt P0DTD1).

The Km is the concentration of substrate that gives half-maximal velocity. Turning to RVVKLQ/ANELMP [nsp8/9 N1′A], the “Fold change = (kcat/KM) nsp8/9 analog /(kcat/KM) nsp8/9” value was 2.9, the Km turned out to be 22 ± 3 µM, the kcat is 0.022 ± 0.001 S^−1 and the “kcat/KM (catalytic efficiency)” value was 1.0 ± 0.1 × 10^3 M^−1 s^−1.
Take RVVKLQ/NAELMP [nsp8/9 N2′A]: the “Fold change = (kcat/KM) nsp8/9 analog /(kcat/KM) nsp8/9” value came out at 2.1, the Km worked out at 46 ± 5 µM, the kcat worked out at 0.034 ± 0.002 S^−1 and the “kcat/KM (catalytic efficiency)” value is given as 7.5 ±0.8 × 10^2 M^−1 s^−1.
As for RVVKLQ/NNELMP [nsp8/9], the “Fold change = (kcat/KM) nsp8/9 analog /(kcat/KM) nsp8/9” value stood at 1.0, the Km was 36 ± 6 µM, the kcat is reported as 0.013 ± 0.001 S^−1 and the “kcat/KM (catalytic efficiency)” value is given as 3.6 ± 0.7 × 10^2 M^−1 s^−1.
For RVVKLQ/NDELMP [nsp8/9 N2′D] the same measures were 0.4, 19 ± 1 µM, 0.0029 ± 0.0001 S^−1 and 1.6 ± 1.2 × 10^2 M^−1 s^−1.
With TSAVLQ/SGFRKM [nsp4/5], the Km stood at 41 ± 9 µM; the “fold difference in kcat/KM, nsp4/5 versus nsp8/9” value is listed as 36 fold; the kcat came to 0.52 ± 0.07 S^−1; the “kcat/KM (catalytic efficiency)” value is 1.3 ± 0.3 × 10^4 M^−1 s^−1.

Source of the values: article PMC8424689 (ACS infectious diseases, 2021).
